# Like-named read-outs stand apart in the source and are kept apart here.
# What was measured:
# [1] = tested on: human neonatal dermal fibroblasts (NDF); test: Resazurin viability assay, senescent vs proliferating/quiescent human neonatal dermal fibroblasts; assay type: cell-based; settings: Homo sapiens, Fibroblast, 72 h, 72 hour exposure, resazurin
# Method: FIG. 2. Compound A1.1 selectively kills senescent human neonatal dermal fibroblasts (NDF) cells in a dose- and time-dependent manner. (FIG. 2A) Normal proliferating and quiescent NDF cells, and the cells made senescent via exposure to genotoxic agents (doxorubicin, bleomycin and gamma-irradiation) were incubated with increasing concentrations of A1.1. At 72 hours post-treatment cell viability was measured via resazurin viability assay. (FIG. 2B) Compound A1.1 selectively kills senescent NDF cells in time-dependent manner discriminating between acute genotoxic stress and senescence. Acutely damaged NDF cells were irradiated with 4 Gy gamma-irradiation 24 hours before A1.1 treatment. Senescent NDF cells were treated with bleomycin or irradiated with 15 Gy and incubated for 14 days to induce senescence before treatment with A1.1. Proliferating acutely damaged and senescent NDF cell were treated with 1.875-30 μM A1.1 and viable cells were measured at 72 hours after treatment. Average and standard deviation are shown.
# Normal proliferating and quiescent NDF cells, and the cells made senescent via exposure to genotoxic agents (doxorubicin, bleomycin and gamma-irradiation) were incubated with increasing concentrations of A1.1. At 72 hours post-treatment cell viability was measured via resazurin viability assay.
# A1.1 selectively kills senescent human neonatal dermal fibroblasts (NDF) cells in time-dependent manner discriminating between acute genotoxic stress and senescence ([…]). Acutely damaged NDF cells were irradiated with 4 Gy gamma-irradiation 24 hours before A1.1 treatment. Senescent NDF cells were treated with bleomycin or irradiated with 15 Gy and incubated for 14 days to induce senescence before treatment with A1.1.
# (§1) Cytotoxicity of A1.1 analogs against bleomycin-induced senescent human NDFs and rat dermal fibroblasts (RDFs). Activity of analogs was assessed from dose-response curves against irradiation- or bleomycin-induced senescent and proliferating cells to calculate IC50s (uM). The fold difference of proliferating versus senescent cell IC50s was used to assess the level of specific anti-senescent activity of the compounds.
# (§2) For generation senescent human neonatal dermal fibroblasts (NDFs) and adult rat dermal fibroblasts (RDFs), cells are treated at ˜10 ug/ml bleomycin for 3 days (for bleomycin-induced senescence) or irradiated once at 20 Gy using a gamma irradiator (Cs source), followed by at least 7 day recovery in fresh medium for induction of senescence. Senescent and non-senescent (proliferating) cells for each cell line are plated into 384-w plate, followed by 72 hour exposure to a dose titration of compounds. Viability measurements are estimated using the resazurin viability assay. Using GraphPad Prism 5, the IC50 values are calculated from the non-linear regression of log-transformed compound concentrations versus dose-response normalized to background and non-treated controls.
# [2] = tested on: adult rat dermal fibroblasts (RDF); test: Resazurin viability assay, senescent vs proliferating rat dermal fibroblasts; assay type: cell-based; settings: Rattus norvegicus, Fibroblast, 72 hour exposure, resazurin
# Method: as §1, §2
# [3] = proliferating NDF, read-out: IC50 NDFprolif
# [4] = senescent NDF, bleomycin-induced, read-out: IC50 NDFsen.bleo
# [5] = light or radiation study, senescent NDF, irradiation-induced, read-out: IC50 NDFsen.irr
# [6] = light or radiation study, senescent RDF, irradiation-induced, read-out: IC50 RDFsen.irr
# [7] = proliferating RDF, read-out: IC50 RDFprolif
# [8] = senescent RDF, bleomycin-induced, read-out: IC50 RDFsen.bleo
SMILES,"IC50 [1, 3] [µM]","IC50 [1, 4] [µM]","IC50 [1, 5] [µM]","IC50 [2, 6] [µM]","IC50 [2, 7] [µM]","IC50 [2, 8] [µM]"
"COc1ccc(C2C/C(=N\O)c3c(SCc4ccccc4)sc(C(=O)NCc4ccco4)c3C2)cc1 (stereo not drawn) [Example A1.15, 3-(Benzylthio)-N-(furan-2-ylmethyl)-4-(hydroxyimino)-6-(4-methoxyphenyl)-4,5,6,7-tetrahydrobenzo[c]thiophene-1-carboxamide]",> 20,< 5,< 5,< 5,> 20,< 2.6
"Cc1ccc(CNc2ncc3c(n2)CC(c2ccccc2)C/C3=N\O)cc1 (stereo not drawn) [Example A2.1, 2-((4-Methylbenzyl)amino)-7-phenyl-7,8-dihydroquinazolin-5(6H)-one oxime]",> 20,< 5,< 5,< 5,> 20,< 5
"CCOC(=O)c1sc(SCc2ccccc2)c2c1CC(c1ccc(F)cc1)CC2=NO (stereo not drawn) [Example A1.7, Ethyl 3-(benzylthio)-6-(4-fluorophenyl)-4-(hydroxyimino)-4,5,6,7-tetrahydrobenzo[c]-thiophene-1-carboxylate]",> 10,< 2.5,< 2.5,< 2.5,> 5,< 2.5
"CCOC(=O)c1sc(Sc2ccccc2)c2c1CC(c1ccc(OC)cc1)C/C2=N\O (stereo not drawn) [Example A1.5, Ethyl 4-(hydroxyimino)-6-(4-methoxyphenyl)-3-(phenylthio)-4,5,6,7-tetrahydro-benzo[c]thiophene-1-carboxylate]",> 10,< 10,< 10,< 5,> 10,< 5
COc1ccc(C2C/C(=N\O)c3sc(NC(=O)COc4ccc(C)cc4)nc3C2)cc1 (stereo not drawn) [Example A4.1],> 5,< 5,< 2.5,< 5,< 10,< 5
"N#Cc1cc2c(nc1SCc1ccccc1)CC(c1ccccc1)C/C2=N\O (stereo not drawn) [Example A3.2, 2-(Benzylthio)-5-(hydroxyimino)-7-phenyl-5,6,7,8-tetrahydroquinoline-3-carbonitrile]",> 20,< 15,< 10,< 2.5,> 20,< 5
"O/N=C1\CC(c2ccccc2)Cc2nc(NCCOc3ccccc3)ncc21 (stereo not drawn) [Example A2.2, 2-((2-Phenoxyethyl)amino)-7-phenyl-7,8-dihydroquinazolin-5(6H)-one oxime]",> 20,< 2.5,< 5,< 2.5,> 20,< 2.5
"O=C(Nc1ccccc1)c1cc2c(nc1NCCOc1ccccc1)CC(c1ccccc1)C/C2=N\O (stereo not drawn) [Example A3.1, 5-(Hydroxyimino)-2-((2-phenoxyethyl)amino)-N,7-diphenyl-5,6,7,8-tetrahydroquinoline-3-carboxamide]",< 5,< 2.5,< 2.5,< 2.5,> 20,< 2.5
"Nc1nc(CCCc2ccccc2)c2c(n1)CC(c1ccccc1)C/C2=N\O (stereo not drawn) [Example A2.3, 2-Amino-7-phenyl-4-(3-phenylpropyl)-7,8-dihydroquinazolin-5(6H)-one oxime]",> 20,< 20,< 20,–,> 20,< 15
"CC1(C)CC(=NO)c2c(SCc3ccccc3)sc(C(=O)NCc3ccccc3)c2C1 [Example A1.4, N-benzyl-3-(benzylthio)-4-(hydroxyimino)-6,6-dimethyl-4,5,6,7-tetrahydrobenzo[c]thiophene-1-carboxamide]",> 20,< 10,–,–,–,–
"CCOC(=O)c1sc(SCc2ccccc2)c2c1C(c1ccc(OC)cc1)CC/C2=N\O (stereo not drawn) [Example A1.9, Ethyl 3-(benzylthio)-4-(hydroxyimino)-7-(4-methoxyphenyl)-4,5,6,7-tetrahydrobenzo[c]-thiophene-1-carboxylate]",> 20,< 20,< 20,< 20,> 20,> 20
"COc1ccc(C2C/C(=N\O)c3c(SCc4ccccc4)sc(C(=O)NCc4ccccc4)c3C2)cc1 (stereo not drawn) [Example A1.14, N-benzyl-3-(benzylthio)-4-(hydroxyimino)-6-(4-methoxyphenyl)-4,5,6,7-tetrahydrobenzo[c]thiophene-1-carboxamide]",> 20,< 5,< 5,< 2.5,> 20,< 2.5
"COc1ccc(C2CC(=NO)c3c(SCc4ccccc4)sc(C(=O)OCc4ccccc4)c3C2)cc1 (stereo not drawn) [Example A1.8, Benzyl 3-(benzylthio)-4-(hydroxyimino)-6-(4-methoxyphenyl)-4,5,6,7-tetrahydrobenzo[c]-thiophene-1-carboxylate]",> 20,< 10,–,–,–,–
"O/N=C1\CC(c2ccccc2)Cc2nc(NCc3ccccc3)sc21 (stereo not drawn) [Example A4.2, 2-(Benzylamino)-5-phenyl-5,6-dihydrobenzo[d]thiazol-7(4H)-one oxime]",> 20,< 15,< 15,< 10,> 20,< 10

# — patent US20200123127A1, “REMOVAL OF SENESCENCE-ASSOCIATED MACROPHAGES” (EVERON BIOSCIENCES, INC., priority 2016, published 2020)
